Our source for the MIC values is ChEMBL document CHEMBL3046893, “Antimicrobial screening of novel synthesized benzimidazole nucleus containing 4-oxo-thiazolidine derivatives” (2012).

Converted amounts (≈) assume the structure as drawn.

What all share (type): functional
In one assay the test system is Staphylococcus aureus. Briefly: Antibacterial activity against Staphylococcus aureus MTCC 96 after 24 to 48 hr by serial broth dilution method. A general note: Dilution methods test growth across graded concentrations, often in twofold steps.
For another assay, the system named is Candida albicans. Briefly: Antifungal activity against Candida albicans MTCC 227.
A further assay relates to Aspergillus clavatus. Kind of assay: Antifungal activity against Aspergillus clavatus MTCC 1323.
A further assay deals with Streptococcus pyogenes. Briefly: Antibacterial activity against Streptococcus pyogenes MTCC 442 after 24 to 48 hr by serial broth dilution method.
The subject of a further assay is Aspergillus niger. Briefly: Antifungal activity against Aspergillus niger MTCC 282.
The subject of the next assay is Pseudomonas aeruginosa. Kind of assay: Antibacterial activity against Pseudomonas aeruginosa MTCC 1688 after 24 to 48 hr by serial broth dilution method.
The next assay relates to Escherichia coli. Briefly: Antibacterial activity against Escherichia coli MTCC 443 after 24 to 48 hr by serial broth dilution method.

Broadly, the MIC is the lowest concentration that inhibits growth of the organism.

As to `Cc1ccc2nc(-c3ccccc3N3C(=O)CSC3c3cccc(O)c3)[nH]c2c1` (stereo unspecified), the minimum inhibitory concentration (MIC) with Staphylococcus aureus came out at 250 µg/mL (≈ 623 µM); with Candida albicans it was 500 µg/mL (≈ 1250 µM); with Aspergillus clavatus, 100 µg/mL (≈ 249 µM); in the assay with Streptococcus pyogenes (read-out: MIC), 125 µg/mL (≈ 311 µM); with Aspergillus niger it was 1000 µg/mL (≈ 2490 µM); in the assay with Pseudomonas aeruginosa, 250 µg/mL (≈ 623 µM). The MIC against Escherichia coli worked out at 500 µg/mL (≈ 1250 µM).
For `COc1ccc(C2SCC(=O)N2c2ccccc2-c2nc3ccc(C)cc3[nH]2)cc1OC` (stereo unspecified), the MIC in the assay with Staphylococcus aureus came to 100 µg/mL (≈ 224 µM); in the assay on Candida albicans, 500 µg/mL (≈ 1120 µM); with Aspergillus clavatus, 1000 µg/mL (≈ 2240 µM); with Streptococcus pyogenes (read-out: MIC), 1000 µg/mL (≈ 2240 µM); against Aspergillus niger it was 1000 µg/mL (≈ 2240 µM); in the assay on Pseudomonas aeruginosa, 250 µg/mL (≈ 561 µM). This compound displayed an MIC against Escherichia coli of 100 µg/mL (≈ 224 µM).
`COc1cc(C2SCC(=O)N2c2ccccc2-c2nc3ccc(C)cc3[nH]2)cc(OC)c1OC` (stereo unspecified): the MIC with Staphylococcus aureus is 500 µg/mL (≈ 1050 µM); against Candida albicans it was 500 µg/mL (≈ 1050 µM); against Aspergillus clavatus it was 1000 µg/mL (≈ 2100 µM); with Streptococcus pyogenes (read-out: MIC) it was 250 µg/mL (≈ 526 µM); against Aspergillus niger, 1000 µg/mL (≈ 2100 µM); in the assay with Pseudomonas aeruginosa, 250 µg/mL (≈ 526 µM). In the assay on Escherichia coli, this compound registered an MIC of 500 µg/mL (≈ 1050 µM).
In the case of `Cc1ccc2nc(-c3ccccc3N3C(=O)CSC3c3ccccc3[N+](=O)[O-])[nH]c2c1` (stereo unspecified), the MIC against Staphylococcus aureus amounted to 1000 µg/mL (≈ 2320 µM); against Candida albicans, 1000 µg/mL (≈ 2320 µM); in the assay with Aspergillus clavatus, 1000 µg/mL (≈ 2320 µM); in the assay on Streptococcus pyogenes (read-out: MIC), 250 µg/mL (≈ 581 µM); in the assay with Aspergillus niger, 1000 µg/mL (≈ 2320 µM); against Pseudomonas aeruginosa, 250 µg/mL (≈ 581 µM). This compound also registered a minimal inhibitory concentration (MIC) in the assay with Escherichia coli of 500 µg/mL (≈ 1160 µM).
As to `Cc1ccc2nc(-c3ccccc3N3C(=O)CSC3c3cccc([N+](=O)[O-])c3)[nH]c2c1` (stereo unspecified), the MIC with Staphylococcus aureus amounted to 100 µg/mL (≈ 232 µM); in the assay with Candida albicans, 100 µg/mL (≈ 232 µM); against Aspergillus clavatus, 1000 µg/mL (≈ 2320 µM); in the assay on Streptococcus pyogenes (read-out: MIC) it was 62.5 µg/mL (≈ 145 µM); in the assay with Aspergillus niger, 100 µg/mL (≈ 232 µM); in the assay on Pseudomonas aeruginosa, 250 µg/mL (≈ 581 µM). The compound also came in with an MIC against Escherichia coli of 25 µg/mL (≈ 58.1 µM).
As to `Cc1ccc2nc(-c3ccccc3N3C(=O)CSC3c3ccc([N+](=O)[O-])cc3)[nH]c2c1` (stereo unspecified), the MIC was 250 µg/mL (≈ 581 µM) against Staphylococcus aureus; 500 µg/mL (≈ 1160 µM) in the assay with Candida albicans; 1000 µg/mL (≈ 2320 µM) in the assay with Aspergillus clavatus; 250 µg/mL (≈ 581 µM) in the assay on Streptococcus pyogenes (read-out: MIC); 1000 µg/mL (≈ 2320 µM) with Aspergillus niger; 250 µg/mL (≈ 581 µM) with Pseudomonas aeruginosa. In the assay on Escherichia coli, this compound had a minimal inhibitory concentration (MIC) of 500 µg/mL (≈ 1160 µM).
With `Cc1ccc2nc(-c3ccccc3N3C(=O)CSC3c3ccc([N+](=O)[O-])cc3[N+](=O)[O-])[nH]c2c1` (stereo unspecified), the minimal inhibitory concentration (MIC) against Staphylococcus aureus turned out to be 62.5 µg/mL (≈ 131 µM); in the assay with Candida albicans it was 1000 µg/mL (≈ 2100 µM); with Aspergillus clavatus, 1000 µg/mL (≈ 2100 µM); with Streptococcus pyogenes (read-out: MIC), 1000 µg/mL (≈ 2100 µM); against Aspergillus niger, 1000 µg/mL (≈ 2100 µM); against Pseudomonas aeruginosa, 250 µg/mL (≈ 526 µM). This compound gave an MIC in the assay with Escherichia coli of 62.5 µg/mL (≈ 131 µM).
`Cc1ccc2nc(-c3ccccc3N3C(=O)CSC3c3ccccc3Cl)[nH]c2c1` (stereo unspecified): the MIC was found to be 500 µg/mL (≈ 1190 µM) in the assay with Staphylococcus aureus; 1000 µg/mL (≈ 2380 µM) against Candida albicans; 1000 µg/mL (≈ 2380 µM) against Aspergillus clavatus; 1000 µg/mL (≈ 2380 µM) in the assay with Streptococcus pyogenes (read-out: MIC); 1000 µg/mL (≈ 2380 µM) in the assay with Aspergillus niger; 1000 µg/mL (≈ 2380 µM) in the assay on Pseudomonas aeruginosa. In the assay with Escherichia coli, this compound gave an MIC of 1000 µg/mL (≈ 2380 µM).
Consider `Cc1ccc2nc(-c3ccccc3N3C(=O)CSC3c3ccc(Cl)cc3)[nH]c2c1` (stereo unspecified), for which the MIC in the assay with Staphylococcus aureus was 100 µg/mL (≈ 238 µM); against Candida albicans, 500 µg/mL (≈ 1190 µM); against Aspergillus clavatus, 1000 µg/mL (≈ 2380 µM); with Streptococcus pyogenes (read-out: MIC) it was 62.5 µg/mL (≈ 149 µM); with Aspergillus niger, 500 µg/mL (≈ 1190 µM); in the assay with Pseudomonas aeruginosa, 250 µg/mL (≈ 595 µM). In the assay with Escherichia coli, this compound registered an MIC of 125 µg/mL (≈ 298 µM).
For the compound `Cc1ccc2nc(-c3ccccc3N3C(=O)CSC3c3ccc(Cl)cc3Cl)[nH]c2c1` (stereo unspecified), the MIC came out at 1000 µg/mL (≈ 2200 µM) against Staphylococcus aureus; 250 µg/mL (≈ 550 µM) in the assay with Candida albicans; 500 µg/mL (≈ 1100 µM) in the assay on Aspergillus clavatus; 500 µg/mL (≈ 1100 µM) against Streptococcus pyogenes; 500 µg/mL (≈ 1100 µM) in the assay on Aspergillus niger; 100 µg/mL (≈ 220 µM) against Pseudomonas aeruginosa. In the assay on Escherichia coli, this compound came in with an MIC of 62.5 µg/mL (≈ 138 µM).
Turning to `Cc1ccc2nc(-c3ccccc3N3C(=O)CSC3c3ccc(F)cc3)[nH]c2c1` (stereo unspecified), the MIC in the assay on Staphylococcus aureus was 250 µg/mL (≈ 620 µM); against Candida albicans, 500 µg/mL (≈ 1240 µM); against Aspergillus clavatus, 1000 µg/mL (≈ 2480 µM); with Streptococcus pyogenes (read-out: MIC), 250 µg/mL (≈ 620 µM); with Aspergillus niger, 500 µg/mL (≈ 1240 µM); in the assay with Pseudomonas aeruginosa, 250 µg/mL (≈ 620 µM). The minimal inhibitory concentration (MIC) with Escherichia coli was found to be 250 µg/mL (≈ 620 µM).
Turning to `Cc1ccc2nc(-c3ccccc3N3C(=O)CSC3c3ccc(O)cc3)[nH]c2c1` (stereo unspecified), the minimal inhibitory concentration (MIC) against Staphylococcus aureus amounted to 500 µg/mL (≈ 1250 µM); in the assay on Candida albicans, 1000 µg/mL (≈ 2490 µM); against Aspergillus clavatus, 1000 µg/mL (≈ 2490 µM); in the assay with Streptococcus pyogenes (read-out: MIC), 500 µg/mL (≈ 1250 µM); against Aspergillus niger it was 1000 µg/mL (≈ 2490 µM); against Pseudomonas aeruginosa it was 250 µg/mL (≈ 623 µM). This compound displayed an MIC in the assay on Escherichia coli of 125 µg/mL (≈ 311 µM).
Consider `CC1(C)S[C@@H]2[C@H](NC(=O)[C@H](N)c3ccccc3)C(=O)N2[C@H]1C(=O)O` [AMPICILLIN], for which the MIC in the assay with Staphylococcus aureus was found to be 250 µg/mL (≈ 715 µM); in the assay with Streptococcus pyogenes (read-out: MIC) it was 100 µg/mL (≈ 286 µM); against Pseudomonas aeruginosa, 100 µg/mL (≈ 286 µM); with Escherichia coli, 100 µg/mL (≈ 286 µM).
On to `COC1=CC(=O)C[C@@H](C)[C@]12Oc1c(Cl)c(OC)cc(OC)c1C2=O` [GRISEOFULVIN], for which the values for the MIC in the assay on Candida albicans, against Aspergillus clavatus and against Aspergillus niger were 500 µg/mL (≈ 1420 µM), 100 µg/mL (≈ 283 µM) and 100 µg/mL (≈ 283 µM), respectively.
